Data taken from US20080069785A1, “PEST-CONTROL COMPOSITIONS, AND METHODS AND PRODUCTS UTILIZING SAME” (priority 2004, published 2008).

System: cockroaches (Blattella germanica)
Experiment: Weeklong surface area toxicity test on cockroaches (Example 19)
Format: in vivo
Protocol: In order determine the toxicity of the formulation to the insect after application to a surface over a period of time, the following test was performed. […] Cockroaches were placed in the cups on the first day following the application of the formulations, on the third day following the application of the formulations, and on the sixth day following the application of the formulations in order to monitor the toxicity of the formulations after a period of time had elapsed. The mortality of the cockroaches was then recorded at the time intervals noted. The five cockroaches placed in each cup were one week old cockroaches (Blattella germanica) which had been reared at twenty seven degrees centigrade, at sixty five percent relative humidity, and on a twelve hour light to dark photoperiod. Each of the cups had Fluon®AD1 treated sides to prevent the escape of the cockroaches.

Measured: cockroaches alive (of five per cup)

CCCCCCCCCC(C)=O [Undecanone, 2-Undecanone]
3: 3-4 days treatment, 0.95 μL/cm^2 (50 μL), 2 h
1: 3-4 days treatment, 0.95 μL/cm^2 (50 μL), 23 h | 3-4 days treatment, 0.95 μL/cm^2 (50 μL), 24 h
5: 3-4 days treatment, 0.09 μL/cm^2 (5 μL), 23 h | 3-4 days treatment, 0.09 μL/cm^2 (5 μL), 24 h | 3-4 days treatment, 0.09 μL/cm^2 (5 μL), 27 h | 3-4 days treatment, 0.09 μL/cm^2 (5 μL), 30 h | 3-4 days treatment, 0.19 μL/cm^2 (10 μL), 5 min | 3-4 days treatment, 0.19 μL/cm^2 (10 μL), 10 min | 3-4 days treatment, 0.19 μL/cm^2 (10 μL), 15 min | 3-4 days treatment, 0.19 μL/cm^2 (10 μL), 30 min | 3-4 days treatment, 0.19 μL/cm^2 (10 μL), 60 min | 3-4 days treatment, 0.19 μL/cm^2 (10 μL), 90 min | 3-4 days treatment, 0.19 μL/cm^2 (10 μL), 2 h | 3-4 days treatment, 0.19 μL/cm^2 (10 μL), 4 h | 3-4 days treatment, 0.19 μL/cm^2 (10 μL), 23 h | 3-4 days treatment, 0.19 μL/cm^2 (10 μL), 24 h | 3-4 days treatment, 0.19 μL/cm^2 (10 μL), 27 h | 3-4 days treatment, 0.19 μL/cm^2 (10 μL), 30 h | 3-4 days treatment, 0.95 μL/cm^2 (50 μL), 5 min | 3-4 days treatment, 0.95 μL/cm^2 (50 μL), 10 min | 3-4 days treatment, 0.95 μL/cm^2 (50 μL), 15 min | 3-4 days treatment, 0.95 μL/cm^2 (50 μL), 30 min | 3-4 days treatment, 0.95 μL/cm^2 (50 μL), 60 min | 3-4 days treatment, 0.95 μL/cm^2 (50 μL), 90 min | 6-7 days treatment, 0.02 μL/cm^2 (1 μL), 5 min | 6-7 days treatment, 0.02 μL/cm^2 (1 μL), 10 min | 6-7 days treatment, 0.02 μL/cm^2 (1 μL), 15 min | 6-7 days treatment, 0.02 μL/cm^2 (1 μL), 30 min | 6-7 days treatment, 0.02 μL/cm^2 (1 μL), 60 min | 6-7 days treatment, 0.02 μL/cm^2 (1 μL), 90 min | 6-7 days treatment, 0.02 μL/cm^2 (1 μL), 2 h | 6-7 days treatment, 0.02 μL/cm^2 (1 μL), 4 h | 6-7 days treatment, 0.02 μL/cm^2 (1 μL), 21.5 h | 6-7 days treatment, 0.02 μL/cm^2 (1 μL), 22 h | 6-7 days treatment, 0.02 μL/cm^2 (1 μL), 23 h | 6-7 days treatment, 0.02 μL/cm^2 (1 μL), 24 h | 6-7 days treatment, 0.02 μL/cm^2 (1 μL), 27 h | 6-7 days treatment, 0.02 μL/cm^2 (1 μL), 29 h | 6-7 days treatment, 0.02 μL/cm^2 (1 μL), 30 h | 6-7 days treatment, 0.02 μL/cm^2 (1 μL), 31 h | 6-7 days treatment, 0.09 μL/cm^2 (5 μL), 5 min | 6-7 days treatment, 0.09 μL/cm^2 (5 μL), 10 min | 6-7 days treatment, 0.09 μL/cm^2 (5 μL), 15 min | 6-7 days treatment, 0.09 μL/cm^2 (5 μL), 30 min | 6-7 days treatment, 0.09 μL/cm^2 (5 μL), 60 min | 6-7 days treatment, 0.09 μL/cm^2 (5 μL), 90 min | 6-7 days treatment, 0.09 μL/cm^2 (5 μL), 2 h | 6-7 days treatment, 0.09 μL/cm^2 (5 μL), 4 h | 6-7 days treatment, 0.09 μL/cm^2 (5 μL), 21.5 h | 6-7 days treatment, 0.09 μL/cm^2 (5 μL), 22 h | 6-7 days treatment, 0.09 μL/cm^2 (5 μL), 23 h | 6-7 days treatment, 0.09 μL/cm^2 (5 μL), 24 h | 6-7 days treatment, 0.09 μL/cm^2 (5 μL), 27 h | 6-7 days treatment, 0.09 μL/cm^2 (5 μL), 29 h | 6-7 days treatment, 0.09 μL/cm^2 (5 μL), 30 h | 6-7 days treatment, 0.09 μL/cm^2 (5 μL), 31 h | 6-7 days treatment, 0.19 μL/cm^2 (10 μL), 5 min | 6-7 days treatment, 0.19 μL/cm^2 (10 μL), 10 min | 6-7 days treatment, 0.19 μL/cm^2 (10 μL), 15 min | 6-7 days treatment, 0.19 μL/cm^2 (10 μL), 30 min | 6-7 days treatment, 0.19 μL/cm^2 (10 μL), 60 min | 6-7 days treatment, 0.19 μL/cm^2 (10 μL), 90 min | 6-7 days treatment, 0.19 μL/cm^2 (10 μL), 2 h | 6-7 days treatment, 0.19 μL/cm^2 (10 μL), 4 h | 6-7 days treatment, 0.19 μL/cm^2 (10 μL), 21.5 h | 6-7 days treatment, 0.19 μL/cm^2 (10 μL), 22 h | 6-7 days treatment, 0.19 μL/cm^2 (10 μL), 23 h | 6-7 days treatment, 0.19 μL/cm^2 (10 μL), 24 h | 6-7 days treatment, 0.19 μL/cm^2 (10 μL), 27 h | 6-7 days treatment, 0.19 μL/cm^2 (10 μL), 29 h | 6-7 days treatment, 0.19 μL/cm^2 (10 μL), 30 h | 6-7 days treatment, 0.19 μL/cm^2 (10 μL), 31 h
0: 3-4 days treatment, 0.95 μL/cm^2 (50 μL), 27 h | 3-4 days treatment, 0.95 μL/cm^2 (50 μL), 30 h
2: 3-4 days treatment, 0.95 μL/cm^2 (50 μL), 4 h | 6-7 days treatment, 0.95 μL/cm^2 (50 μL), 21.5 h | 6-7 days treatment, 0.95 μL/cm^2 (50 μL), 22 h | 6-7 days treatment, 0.95 μL/cm^2 (50 μL), 23 h | 6-7 days treatment, 0.95 μL/cm^2 (50 μL), 24 h
